Measured values from patent US20260242372A1, “NOVEL IMIDAZOPYRIDINE AND PYRAZOLOPYRIDINE SULFONAMIDE DERIVATIVES” (Hoffmann-La Roche Inc., priority 2022, published 2026).
pIC50: −log10 of the molar value.

target: human GPR17 short isoform (Homo sapiens, UniProt Q13304); assay: GPR17 cAMP assay (hGPR17 cAMP, TR-FRET, antagonist mode); type: cell-based; conditions: CHO-K1 cells stably expressing human GPR17 short isoform; EC80 of agonist MDL29,951; forskolin 15 μM; 30 min at room temperature
Sequence (Q13304 29-367): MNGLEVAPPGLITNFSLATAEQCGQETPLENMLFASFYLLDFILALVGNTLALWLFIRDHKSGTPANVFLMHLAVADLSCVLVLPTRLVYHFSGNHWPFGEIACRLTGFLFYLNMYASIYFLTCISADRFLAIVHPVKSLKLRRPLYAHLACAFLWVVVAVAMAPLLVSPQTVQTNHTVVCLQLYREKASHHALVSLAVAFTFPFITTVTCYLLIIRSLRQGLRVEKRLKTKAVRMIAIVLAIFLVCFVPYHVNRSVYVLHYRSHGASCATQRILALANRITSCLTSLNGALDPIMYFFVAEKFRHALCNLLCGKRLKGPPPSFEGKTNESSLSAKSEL

Row | Structure (SMILES) | pIC50
1 | COc1nc(OCC(F)F)c(F)cc1NS(=O)(=O)c1cnc2cc(C(F)F)ccn12 [Example 14, N-[6-(2,2-difluoroethoxy)-5-fluoro-2-methoxy-3-pyridyl]-7-(difluoromethyl)imidazo[1,2-a]pyridine-3-sulfonamide] | 7.74
2 | COc1nc(OCC(F)F)c(F)cc1NS(=O)(=O)c1cnc2nc(C3CC3)ccn12 [Example 16, 7-cyclopropyl-N-[6-(2,2-difluoroethoxy)-5-fluoro-2-methoxy-3-pyridyl]imidazo[1,2-a]pyrimidine-3-sulfonamide] | 7.74
3 | COc1c(C)ccn2c(S(=O)(=O)Nc3cc(F)c(C#N)cc3F)cnc12 [Example 98, N-(4-cyano-2,5-difluoro-phenyl)-8-methoxy-7-methyl-imidazo[1,2-a]pyridine-3-sulfonamide] | 6.09
4 | COc1nc(OCC(F)F)c(F)cc1NS(=O)(=O)c1cnc2n1CCC(C)(C)C2 [Example 45, N-[6-(2,2-difluoroethoxy)-5-fluoro-2-methoxy-3-pyridyl]-7,7-dimethyl-6,8-dihydro-5H-imidazo[1,2-a]pyridine-3-sulfonamide] | 7.12
5 | Cc1ccn2c(S(=O)(=O)Nc3cc(F)c(CC#N)cc3F)cnc2c1C#N [Example 67, 8-cyano-N-[4-(cyanomethyl)-2,5-difluoro-phenyl]-7-methyl-imidazo[1,2-a]pyridine-3-sulfonamide] | 6.52
6 | COc1nc(OCC(F)F)c(F)cc1NS(=O)(=O)c1cnc2n1CCC(C)C2 (centres unmarked) [Example 23, N-[6-(2,2-difluoroethoxy)-5-fluoro-2-methoxy-3-pyridyl]-7-methyl-5,6,7,8-tetrahydroimidazo[1,2-a]pyridine-3-sulfonamide] | 7.64
7 | COc1nc(OCC(F)F)c(F)cc1NS(=O)(=O)c1cnn2c1COC(C)C2 (centres unmarked) [Example 88, N-[6-(2,2-difluoroethoxy)-5-fluoro-2-methoxy-3-pyridyl]-6-methyl-6,7-dihydro-4H-pyrazolo[5,1-c][1,4]oxazine-3-sulfonamide] | 6.16
8 | COc1c(C)ccn2c(S(=O)(=O)Nc3cc(F)c(Br)cc3F)cnc12 [Example 57, N-(4-bromo-2,5-difluoro-phenyl)-8-methoxy-7-methyl-imidazo[1,2-a]pyridine-3-sulfonamide] | 6.86
9 | COc1nc(OC(F)F)c(F)cc1NS(=O)(=O)c1cnc2cc(Br)ccn12 [Example 8, 7-bromo-N-[6-(difluoromethoxy)-5-fluoro-2-methoxy-3-pyridyl]imidazo[1,2-a]pyridine-3-sulfonamide] | 8.05
10 | COc1cc(CC#N)c(F)cc1NS(=O)(=O)c1cnc2cc(C)ccn12 [Example 20, N-[4-(cyanomethyl)-5-fluoro-2-methoxy-phenyl]-7-methyl-imidazo[1,2-a]pyridine-3-sulfonamide] | 7.68
11 | COc1nc(OCC(F)F)c(F)cc1NS(=O)(=O)c1cnc2c(C#N)c(Cl)ccn12 [Example 52, 7-chloro-8-cyano-N-[6-(2,2-difluoroethoxy)-5-fluoro-2-methoxy-3-pyridyl]imidazo[1,2-a]pyridine-3-sulfonamide] | 7.00
